Data: patent publication US8507547B2, “Anti-fatigue agents and oral compositions containing andrographolide as active ingredient” (Suntory Holdings Limited, priority 2007, dated 2013)

Columns and labels:
[1] = tested on: Balb/c mice; assay: Water-immersion and sleep-disturbance test (weight-loaded forced swimming test, swimming time); format: in vivo
Text: The first test is measurement of a swimming time in a water-immersion and sleep-disturbance test. This is described in detail below in Example 1. Mice raised in an environment, such as a water-immersed environment, where they were not allowed to take enough sleep or to take a comfortable posture so that they could take neither physical nor mental rest were weighted and forced to swim, and a length of time that passed until noses of the mice sank under the water for a period of 10 seconds or longer was measured (weight-loaded forced swimming test) to determine their fatigue level.
That is to say, since this animal model is a physical and mental fatigue model as well as an organ fatigue model described below, anti-fatigue action against physical and/or mental fatigue would be confirmed if the swimming time becomes longer as a result of administration of the test substance. Such anti-fatigue action is considered to be involved in reduction in fatigue stress, maintenance of physical energy under fatigue conditions (enhancement of body strength), improvement in endurance, and the like.
Effect of andrographolide on fatigue from water immersion and sleep disturbance was examined using a partially modified method of Tanaka et al. (Neuroscience Let. 352, 159-162, 2003). […] Four out of the five groups were reared as water-immersed groups; the groups were kept in cages in such a manner that each of the cages was filled with tap water at 23° C. with a water depth of 7 mm, instead of a floor covering, so that the mice were immersed in water and deprived of sleep. The mice were immersed in water for two days, andrographolide (Aldrich corp., purity 98%) was forcibly administered orally to the mice with doses of 0.5, 2, 8 mg per kilogram of body weight once daily during the two days (water-immersed and andrographolide-administered group). As a control group, one of the groups was immersed in water for two days, and distilled water was forcibly given orally to the group once daily during the two days (water-immersed control group). The remaining one of the five groups was reared as a normally-reared group; this group was kept in a cage with a normal floor covering, and distilled water was forcibly given orally to the group once daily during the two-day rearing (normally-reared control group). After the two days, each of the mice was provided with a weight corresponding to 8% of its body weight, which weight was attached to its tale, and then the mice were forced to swim in a water tank having a diameter of 18 cm and filled with water having a depth of 30 cm. A length of time that passed until the mice sank under water for a period of 10 seconds or longer (swimming time) was measured (weight-loaded forced swimming test).
The swimming time of the mice of the water-immersed group was shorter than that of the mice of the normally-reared group because of fatigue from the water immersion and sleep disturbance. The effect of andrographolide on the fatigue from the water immersion and sleep disturbance was examined by determining recovery of a reduction in the swimming time of the mice of the water-immersed group after the administration of andrographolide.
In accordance with the procedure described in Example 1, effect on water-immersion and sleep-disturbance fatigue was examined in a case in which andrographolide was administered alone to mice, a case in which alpha-lipoic acid was administered alone to mice, and a case in which a combination of andrographolide and alpha-lipoic acid was administered to mice. Eight-week-old male Balb/c mice were used as a test animal. […] Four out of the five groups served as water-immersed groups, and each of the groups was kept in a cage filled with tap water at 23° C. with a water depth of 7 mm, instead of a floor covering, so that the mice were immersed in water and deprived of sleep. […]

[2] = Stability of andrographolide; format: physicochemical
Text: Thus andrographolide can be contained in the composition of the present invention without being processed or made into various forms according to the purpose by use of methods that are publicly known among people skilled in the art; for instance, it can be made into food, drink, seasoning, alcoholic beverages, functional food, pharmaceuticals, or the like. Especially the composition of the present invention can be made into pharmaceuticals for oral administration or food (e.g., functional food, dietary supplement, food with nutrient function, food for specified use, food for specified health use, nutritional supplement, health food, food for diet therapy, general health food, supplements).

[3] = tested on: fatigue animal models such as mice and rats; assay: Fatigue animal models such as mice and rats (summary of effective intake); format: in vivo
Protocol: Accordingly, the amount of andrographolide to be contained in the composition of the present invention is 0.01-500 mg per kilogram of body weight, preferably 0.1-50 mg per kilogram of body weight, more preferably 0.1-10 mg per kilogram of body weight, especially preferably 0.25-10 mg per kilogram of body weight, per daily amount of the composition to be taken by animals including humans. Especially in the case in which andrographolide is to be orally administered to humans (adult) to obtain anti-fatigue action, it is generally suitable to administer 0.1-100 mg of andrographolide, preferably 0.1-50 mg, more preferably 0.1-10 mg, especially preferably 0.25-10 mg, per daily amount of andrographolide to be taken.

C=C1CC[C@@H]2[C@](C)(CO)[C@H](O)CC[C@@]2(C)[C@@H]1C/C=C1/C(=O)OC[C@H]1O [andrographolide]
reduction in the swimming time ([1]; 0.25 mg per kilogram of body weight orally once daily during two days of water immersion, FIG. 1(B)): prevented reduction in the swimming time
reduction in the swimming time ([1]; 200 mg per kilogram of body weight orally once daily during two days of water immersion, FIG. 1(C)): prevented reduction in the swimming time
toxicity to the mice ([1]; 200 mg per kilogram of body weight orally once daily for two days): no toxicity to the mice was observed
reduction in the swimming time ([1]; 0.5, 2, 8 mg per kilogram of body weight orally once daily during two days of water immersion, FIG. 1(A)): prevented in a dose-dependent manner
shortening of the swimming time ([1]; Example 5, FIG. 5, andrographolide 0.25 mg/kg (5a), alpha-lipoic acid 50 mg/kg (5b) or both (5c), orally once daily during two days of water immersion): prevented from shortening
increase rate of the swimming time ([1]; Example 5, swimming time of normally-reared group minus water-immersed control group = 100%, andrographolide 0.25 mg/kg, alpha-lipoic acid 50 mg/kg, alone or combined): 5%
stability to pH, moisture, oxidation, light, heat [2]: high stability
intake producing desired anti-fatigue action ([3]; taken in advance or during fatigue stress to prevent or reduce mental, physical and organ fatigue): 0.25-200 mg per kilogram of body weight
intake producing desired anti-fatigue action ([3]; taken in to promote recovery from physical fatigue already developed): 0.5-8 mg per kilogram of body weight
